Laboratory results: US20230114728A1 (Venatorx Pharmaceuticals, Inc., priority 2019, published 2023)
Values after ≈ are worked out from the molar mass of the structure shown.

Tests used:
Test in all cases: Broth microdilution MIC in CAMHB
Format in all cases: cell-based
A. baumannii ATCC 19606 = settings: Acinetobacter baumannii, ATCC19606; MHB; read-out: Minimum Inhibitory Concentration, A. baumannii ATCC 19606
How it was run: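 CLSI microdilution; CAMHB; inoculum 2-8×10^5 CFU/mL from 3-5 h 37° C culture; 2-fold compound series; 16-20 h, 37° C; MIC = lowest well without visible growth.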

P. aeruginosa ATCC 27853 = settings: Pseudomonas aeruginosa, ATCC27853; MHB; read-out: Minimum Inhibitory Concentration, P. aeruginosa ATCC 27853
How it was run: (§1)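 CLSI broth microdilution in CAMHB: 2-fold compound dilutions inoculated at 2-8×10^5 CFU/mL from 3-5 h log-phase cultures. Incubated at 37 °C for 16-20 h (Enterobacteriaceae, Pseudomonas); MIC read visually as lowest concentration without growth. Strains include hyper-permeable and efflux-deficient mutants.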

E. coli 901C = settings: Escherichia coli; E. coli 901C (hyper-permeable); MHB; read-out: Minimum Inhibitory Concentration, E. coli 901C
How it was run: as §1

[1] = test system: P. aeruginosa (ΔmexAB-oprM); settings: Pseudomonas aeruginosa, read-out: Minimum Inhibitory Concentration, P. aeruginosa ΔmexAB-OprM
How it was run: as §1

E. coli AG100A = settings: Escherichia coli, read-out: Minimum Inhibitory Concentration, E. coli AG100A
How it was run: as §1

[2] = test system: K. pneumoniae UMM producing SHV-5 and KPC-2; settings: Klebsiella pneumoniae, read-out: Minimum Inhibitory Concentration, K. pneumoniae UMM
How it was run: as §1

P. aeruginosa ATCC 35151 = settings: Pseudomonas aeruginosa, ATCC35151; MHB; hyper-permeable strain; read-out: Minimum Inhibitory Concentration, P. aeruginosa ATCC 35151
How it was run: as §1

E. coli ATCC 25922 = settings: Escherichia coli, ATCC25922; E. coli ATCC 25922; MHB; read-out: Minimum Inhibitory Concentration, E. coli 25922
How it was run: as §1

E. coli AG100 = settings: Escherichia coli; E. coli AG100 (wild-type parent); MHB; read-out: Minimum Inhibitory Concentration, E. coli AG100
How it was run: as §1

[3] = test system: K. pneumoniae 848844 producing SHV-11 and KPC-2; settings: Klebsiella pneumoniae, read-out: Minimum Inhibitory Concentration, K. pneumoniae 848844
How it was run: as §1

[4] = test system: K. pneumoniae SI-117 producing VIM-1; settings: Klebsiella pneumoniae, read-out: Minimum Inhibitory Concentration, K. pneumoniae SI-117
How it was run: as §1

E. coli D22 = settings: Escherichia coli; E. coli D22 (hyper-permeable); MHB; read-out: Minimum Inhibitory Concentration, E. coli D22
How it was run: as §1

Compound | MIC (A. baumannii ATCC 19606) | MIC (P. aeruginosa ATCC 27853) | MIC (E. coli 901C) | MIC [1] | MIC (E. coli AG100A) | MIC [2] | MIC (P. aeruginosa ATCC 35151) | MIC (E. coli ATCC 25922) | MIC (E. coli AG100) | MIC [3] | MIC [4] | MIC (E. coli D22)
CCN1CCN(C(=O)N[C@H](C(=O)N[C@H]2Cc3cccc(C(=O)O)c3OB2O)c2ccc(C(=O)O)c(F)c2F)C(=O)C1=O (single isomer, unassigned) [Example 139] | > 128 µg/mL | > 128 µg/mL | < 0.25 µg/mL | 8 to 16 µg/mL (≈ 13.6 to 27.2 µM) | 8 to 16 µg/mL (≈ 13.6 to 27.2 µM) | 32 to 64 µg/mL (≈ 54.4 to 109 µM) | 0.5 to 1 µg/mL (≈ 0.85 to 1.7 µM) | > 128 µg/mL | 32 to 64 µg/mL (≈ 54.4 to 109 µM) | > 128 µg/mL | > 128 µg/mL | 2 to 4 µg/mL (≈ 3.4 to 6.8 µM)
CCN1CCN(C(=O)N[C@@H](C(=O)N[C@H]2Cc3cccc(C(=O)O)c3OB2O)c2ccc(C(=O)O)c(F)c2F)C(=O)C1=O (single isomer, unassigned) [Example 140] | > 128 µg/mL | > 128 µg/mL | < 0.25 µg/mL | 8 to 16 µg/mL (≈ 13.6 to 27.2 µM) | 2 to 4 µg/mL (≈ 3.4 to 6.8 µM) | 32 to 64 µg/mL (≈ 54.4 to 109 µM) | < 0.25 µg/mL | 32 to 64 µg/mL (≈ 54.4 to 109 µM) | 32 to 64 µg/mL (≈ 54.4 to 109 µM) | > 128 µg/mL | > 128 µg/mL | 2 to 4 µg/mL (≈ 3.4 to 6.8 µM)
CCN1CCN(C(=O)N[C@H](C(=O)N[C@H]2Cc3cccc(C(=O)O)c3OB2O)c2ccc(C(=O)O)cc2O)C(=O)C1=O (single isomer, unassigned) [Example 143] | > 128 µg/mL | > 128 µg/mL | 0.5 to 1 µg/mL (≈ 0.88 to 1.76 µM) | > 128 µg/mL | 32 to 64 µg/mL (≈ 56.3 to 113 µM) | > 128 µg/mL | 2 to 4 µg/mL (≈ 3.52 to 7.04 µM) | > 128 µg/mL | > 128 µg/mL | > 128 µg/mL | > 128 µg/mL | 8 to 16 µg/mL (≈ 14.1 to 28.2 µM)
CCN1CCN(C(=O)N[C@@H](C(=O)N[C@H]2Cc3cccc(C(=O)O)c3OB2O)c2ccc(C(=O)O)cc2O)C(=O)C1=O (single isomer, unassigned) [Example 144] | 32 to 64 µg/mL (≈ 56.3 to 113 µM) | > 128 µg/mL | < 0.25 µg/mL | 8 to 16 µg/mL (≈ 14.1 to 28.2 µM) | 8 to 16 µg/mL (≈ 14.1 to 28.2 µM) | 32 to 64 µg/mL (≈ 56.3 to 113 µM) | 0.5 to 1 µg/mL (≈ 0.88 to 1.76 µM) | 32 to 64 µg/mL (≈ 56.3 to 113 µM) | 32 to 64 µg/mL (≈ 56.3 to 113 µM) | > 128 µg/mL | > 128 µg/mL | 2 to 4 µg/mL (≈ 3.52 to 7.04 µM)
CCN1CCN(C(=O)N[C@@H](C(=O)N[C@H]2Cc3cccc(C(=O)O)c3OB2O)c2ccc(C(=O)O)c(F)c2)C(=O)C1=O (single isomer, unassigned) [Example 146] | 32 to 64 µg/mL (≈ 56.1 to 112 µM) | 32 to 64 µg/mL (≈ 56.1 to 112 µM) | < 0.25 µg/mL | 8 to 16 µg/mL (≈ 14 to 28.1 µM) | 2 to 4 µg/mL (≈ 3.51 to 7.01 µM) | 32 to 64 µg/mL (≈ 56.1 to 112 µM) | < 0.25 µg/mL | 32 to 64 µg/mL (≈ 56.1 to 112 µM) | 32 to 64 µg/mL (≈ 56.1 to 112 µM) | > 128 µg/mL | > 128 µg/mL | 2 to 4 µg/mL (≈ 3.51 to 7.01 µM)
CCN1CCN(C(=O)N[C@H](C(=O)N[C@H]2Cc3cccc(C(=O)O)c3OB2O)c2ccc(C(=O)O)c(F)c2)C(=O)C1=O (single isomer, unassigned) [Example 147] | > 128 µg/mL | > 128 µg/mL | < 0.25 µg/mL | 8 to 16 µg/mL (≈ 14 to 28.1 µM) | 2 to 4 µg/mL (≈ 3.51 to 7.01 µM) | 32 to 64 µg/mL (≈ 56.1 to 112 µM) | < 0.25 µg/mL | 32 to 64 µg/mL (≈ 56.1 to 112 µM) | 32 to 64 µg/mL (≈ 56.1 to 112 µM) | > 128 µg/mL | > 128 µg/mL | 2 to 4 µg/mL (≈ 3.51 to 7.01 µM)
CCN1CCN(C(=O)N[C@@H](C(=O)N[C@H]2Cc3cccc(C(=O)O)c3OB2O)c2cc(F)c(C(=O)O)cc2Cl)C(=O)C1=O (single isomer, unassigned) [Example 148] | > 128 µg/mL | > 128 µg/mL | < 0.25 µg/mL | 8 to 16 µg/mL (≈ 13.2 to 26.5 µM) | 8 to 16 µg/mL (≈ 13.2 to 26.5 µM) | 32 to 64 µg/mL (≈ 52.9 to 106 µM) | < 0.25 µg/mL | > 128 µg/mL | 32 to 64 µg/mL (≈ 52.9 to 106 µM) | > 128 µg/mL | > 128 µg/mL | 2 to 4 µg/mL (≈ 3.31 to 6.61 µM)
CCN1CCN(C(=O)N[C@H](C(=O)N[C@H]2Cc3cccc(C(=O)O)c3OB2O)c2cc(F)c(C(=O)O)cc2Cl)C(=O)C1=O (single isomer, unassigned) [Example 149] | > 128 µg/mL | > 128 µg/mL | 0.5 to 1 µg/mL (≈ 0.827 to 1.65 µM) | > 128 µg/mL | 32 to 64 µg/mL (≈ 52.9 to 106 µM) | > 128 µg/mL | 2 to 4 µg/mL (≈ 3.31 to 6.61 µM) | > 128 µg/mL | > 128 µg/mL | > 128 µg/mL | > 128 µg/mL | 8 to 16 µg/mL (≈ 13.2 to 26.5 µM)
CCN1CCN(C(=O)N[C@@H](C(=O)N[C@H]2Cc3cccc(C(=O)O)c3OB2O)c2ccc(C(=O)O)cc2Cl)C(=O)C1=O (single isomer, unassigned) [Example 151] | > 128 µg/mL | > 128 µg/mL | < 0.25 µg/mL | 8 to 16 µg/mL (≈ 13.6 to 27.3 µM) | 8 to 16 µg/mL (≈ 13.6 to 27.3 µM) | > 128 µg/mL | 0.5 to 1 µg/mL (≈ 0.852 to 1.7 µM) | > 128 µg/mL | 32 to 64 µg/mL (≈ 54.5 to 109 µM) | > 128 µg/mL | > 128 µg/mL | 2 to 4 µg/mL (≈ 3.41 to 6.82 µM)
CCN1CCN(C(=O)N[C@H](C(=O)N[C@H]2Cc3cccc(C(=O)O)c3OB2O)c2ccc(C(=O)O)cc2Cl)C(=O)C1=O (single isomer, unassigned) [Example 152] | > 128 µg/mL | > 128 µg/mL | 0.5 to 1 µg/mL (≈ 0.852 to 1.7 µM) | 32 to 64 µg/mL (≈ 54.5 to 109 µM) | 32 to 64 µg/mL (≈ 54.5 to 109 µM) | > 128 µg/mL | 0.5 to 1 µg/mL (≈ 0.852 to 1.7 µM) | > 128 µg/mL | > 128 µg/mL | > 128 µg/mL | > 128 µg/mL | 8 to 16 µg/mL (≈ 13.6 to 27.3 µM)
CCN1CCN(C(=O)N[C@H](C(=O)N[C@H]2Cc3cccc(C(=O)O)c3OB2O)c2ccc(C(=O)O)c(Cl)c2)C(=O)C1=O (single isomer, unassigned) [Example 155] | > 128 µg/mL | > 128 µg/mL | < 0.25 µg/mL | 8 to 16 µg/mL (≈ 13.6 to 27.3 µM) | 8 to 16 µg/mL (≈ 13.6 to 27.3 µM) | > 128 µg/mL | 0.5 to 1 µg/mL (≈ 0.852 to 1.7 µM) | > 128 µg/mL | 32 to 64 µg/mL (≈ 54.5 to 109 µM) | > 128 µg/mL | > 128 µg/mL | 2 to 4 µg/mL (≈ 3.41 to 6.82 µM)
NCCN1CCN(C(=O)N[C@H](C(=O)N[C@H]2Cc3cccc(C(=O)O)c3OB2O)c2cc(F)c(O)c(F)c2)C(=O)C1=O (single isomer, unassigned) [Example 158] | > 128 µg/mL | > 128 µg/mL | 2 to 4 µg/mL (≈ 3.48 to 6.95 µM) | 32 to 64 µg/mL (≈ 55.6 to 111 µM) | 8 to 16 µg/mL (≈ 13.9 to 27.8 µM) | > 128 µg/mL | 0.5 to 1 µg/mL (≈ 0.869 to 1.74 µM) | > 128 µg/mL | > 128 µg/mL | > 128 µg/mL | > 128 µg/mL | 8 to 16 µg/mL (≈ 13.9 to 27.8 µM)
NCCN1CCN(C(=O)N[C@@H](C(=O)N[C@H]2Cc3cccc(C(=O)O)c3OB2O)c2cc(F)c(O)c(F)c2)C(=O)C1=O (single isomer, unassigned) [Example 159] | > 128 µg/mL | 32 to 64 µg/mL (≈ 55.6 to 111 µM) | 0.5 to 1 µg/mL (≈ 0.869 to 1.74 µM) | 2 to 4 µg/mL (≈ 3.48 to 6.95 µM) | 2 to 4 µg/mL (≈ 3.48 to 6.95 µM) | 8 to 16 µg/mL (≈ 13.9 to 27.8 µM) | < 0.25 µg/mL | 8 to 16 µg/mL (≈ 13.9 to 27.8 µM) | 8 to 16 µg/mL (≈ 13.9 to 27.8 µM) | 32 to 64 µg/mL (≈ 55.6 to 111 µM) | 32 to 64 µg/mL (≈ 55.6 to 111 µM) | 2 to 4 µg/mL (≈ 3.48 to 6.95 µM)
